# What was measured:
# Type in all cases: cell-based
# [1] = tested on: VSVΔG-Sδ (SARS-CoV-2 Delta S glycoprotein); assay: microbe, parasite or virus in culture; settings: for IC50: Severe acute respiratory syndrome coronavirus 2, read-out: IC50 against VSVΔG-Sδ
# SARS-CoV-2 XBB.1.5 = tested on: SARS-CoV-2 XBB.1.5
# [2] = tested on: VSVΔG-G (vesicular stomatitis virus glycoprotein); assay: microbe, parasite or virus in culture; settings: for IC50: Vesicular stomatitis virus, read-out: IC50, VSVΔG pseudotypes: G; for IC50 against VSVΔG-G: 0.3125–40 μM
# SARS-CoV-2 CH.1.1 = tested on: SARS-CoV-2 CH.1.1
# [3] = tested on: VSVΔG-SM (MERS-CoV S glycoprotein); settings: 0.3125–40 μM
# [4] = tested on: VSVΔG-Sα (SARS-CoV-2 Alpha S glycoprotein); assay: microbe, parasite or virus in culture; settings: Severe acute respiratory syndrome coronavirus 2, read-out: IC50 against VSVΔG-Sα
# [5] = tested on: SARS-CoV-2 Delta (B.1.617.2)
# [6] = tested on: VSVΔG-Sο (SARS-CoV-2 Omicron S glycoprotein); assay: microbe, parasite or virus in culture; settings: Severe acute respiratory syndrome coronavirus 2, read-out: IC50 against VSVΔG-Sο
Structure (SMILES),"IC50, SARS-CoV-2: XBB.1.5 viral replication (SARS-CoV-2 XBB.1.5)",IC50 [2] [nM],"IC50, SARS-CoV-2: CH.1.1 viral replication (SARS-CoV-2 CH.1.1)",IC50 against VSVΔG-G [2],IC50 against VSVΔG-SM [3],IC50 [1] [nM],IC50 [4] [nM],also measured
"Cc1cccc(NC(=O)C[S+]([O-])c2nc(-c3ccccc3)cn2-c2ccc(Cl)cc2)c1C (racemic) [PCM-0282478, 2-((1-(4-chlorophenyl)-4-phenyl-1H-imidazol-2-yl)sulfinyl)-N-(2,3-dimethylphenyl)acetamide]",neither inhibited,> 10000,neither inhibited,–,–,–,–,times more potent than synthesized PCM-0163855 against VSVΔG-Sδ [1]: approximately 10 times
"CNC(=O)C(C#N)(Cc1cc(Cl)cc2c1OCOC2)Cc1cc(Cl)cc2c1OCOC2 [PCM-0068389, N-methyl3-(6-chloro-2,4-dihydro-1,3-benzodioxin-8-yl)-2-[(6-chloro-2,4-dihydro-1,3-benzodioxin-8-yl)methyl]-2-cyanopropionamide]",–,–,–,some activity,lost all activity,–,–,–
"N=C(N)Nc1ccc(C(=O)Oc2ccc3cc(C(=N)N)ccc3c2)cc1 [PCM-0095060, 6-amidino-2-naphthyl p-guanidinobenzoate, reference compound]",–,–,–,no significant activity,–,310,920,inhibition of bona fide SARS-CoV-2 Delta virus replication [5]: failed to inhibit
"Cc1cccc(NC(=O)CS(=O)(=O)c2nc(-c3ccccc3)cn2-c2ccc(Cl)cc2)c1C [PCM-0163855, 2-((1-(4-chlorophenyl)-4-phenyl-1H-imidazol-2-yl)sulfonyl)-N-(2,3-dimethylphenyl)acetamide]",neither inhibited,> 10000,neither inhibited,–,inactive,450,370,IC50 [6]: 41200 nM
"COc1ccc2cc3c(N)nn(C(=O)Cc4c[nH]c5ccccc45)c3nc2c1 [PCM-0166392, 1-{6-amino-12-methoxy-2,4,5-triazatricyclo[7.4.0.0³,⁷]trideca-1,3(7),5,8,10,12-hexaen-4-yl}-2-(3-indolyl)-1-ethanone]",–,–,–,–,not selective,–,–,–
"Nc1nc(Nc2ccccc2)sc1C(=O)c1ccccc1Cl [PCM-0179622, (4-amino-2-anilino-1,3-thiazol-5-yl)(o-chlorophenyl)methanone]",–,–,–,–,not selective,–,–,–
